The structures appear in SMILES notation.

The values below come from US20250320193A1, “OXOISOINDOLINYL SUBSTITUTED PIPERIDINEDIONE DERIVATIVE AND USE THEREOF” (GLUETACS THERAPEUTICS (SHANGHAI) CO., LTD., priority 2022, published 2025).

Format in all cases: cell-based
Conditions in all cases: hPBMC, compound 500 nM, 24 hours, Western blot

One assay deals with IKZF1 (Homo sapiens (Human), UniProt Q13422+Q96SW2). The experiment in a line: Western blot, substrate protein expression in hPBMC: IKZF1. How it is done:
(§1) The effect of the compounds of the present disclosure on the expression of target proteins in cells was detected using conventional Western blot analysis.
(§2) Human peripheral blood mononuclear cells (hPBMCs) at a density of 1×10^6 cells/mL were thawed according to the PBMC Recovery Protocol (Milecell Biotechnologies Inc, Shanghai). […] After 24 hours of compounds treatment, cells were harvested and lysed in RIPA protein lysate containing phosphatase inhibitors on ice for 30-60 min, followed by centrifugation. The supernatant was aspirated as the extracted total cell protein. The protein concentration of the supernatant was determined using the conventional BCA (Bicinchoninic Acid) assay. The supernatant was then mixed with 4× SDS sample loading buffer, denatured at 95° C. for 5 minutes, and then subjected to SDS-PAGE electrophoresis on a polyacrylamide gel. Proteins were then transferred to a nitrocellulose (NC) membrane, blocked at room temperature for 1-2 h, and processed for antibody incubation and detection according to the manufacturer's instructions (Cell Signaling Technology).
(§3) Half-Maximal Degradation Concentration value (the drug concentration required for degrading proteins by 50%, abbreviated as DC50) reads method: comparing the grayscale values of Western blot bands from drug-treated samples (protein degrader compounds) with those from blank (DMSO-treated) controls, and identifying the drug concentration range at which the grayscale value is half that of the DMSO-treated control bands.
(§4) DC50 values can be calculated using ImageJ software to measure grayscale values of Western blot bands from drug-treated samples. The relationship curve between drug concentration and grayscale values is fitted to estimate the drug concentration corresponding to half the grayscale value.
(§5) Target protein remaining (%) refers to the percentage of target protein remaining in hPBMC cells after treatment with protein degrader compounds.
(§6) Calculation method for protein remaining (%): Use ImageJ software to measure grayscale values of Western blot bands from drug (protein degrader)-treated samples. The grayscale value of drug-treated bands is divided by that of internal control protein bands, and the resulting quotient is normalized to obtain the relative percentage of remaining target protein after protein degrader treatment.
(§7) Target protein degradation rate (%)=100%-target protein remaining (%).
On the technique in general: In western blotting, separated proteins are transferred to a membrane and probed.

In the next assay the target is GSPT1 (Homo sapiens (Human), UniProt P15170+Q96SW2). Nature of the assay: Western blot, substrate protein expression in hPBMC: GSPT1. How it is done: as §1, §2, §3, §4, §5, §6, §7
The next assay concerns the target IKZF3 (Homo sapiens (Human), UniProt Q96SW2+Q9UKT9). Nature of the assay: Western blot, substrate protein expression in hPBMC: IKZF3. The method, then:
as §1, §2, §3, §4, §5, §6, §7

IKZF3, sequence (Q9UKT9 whole entry): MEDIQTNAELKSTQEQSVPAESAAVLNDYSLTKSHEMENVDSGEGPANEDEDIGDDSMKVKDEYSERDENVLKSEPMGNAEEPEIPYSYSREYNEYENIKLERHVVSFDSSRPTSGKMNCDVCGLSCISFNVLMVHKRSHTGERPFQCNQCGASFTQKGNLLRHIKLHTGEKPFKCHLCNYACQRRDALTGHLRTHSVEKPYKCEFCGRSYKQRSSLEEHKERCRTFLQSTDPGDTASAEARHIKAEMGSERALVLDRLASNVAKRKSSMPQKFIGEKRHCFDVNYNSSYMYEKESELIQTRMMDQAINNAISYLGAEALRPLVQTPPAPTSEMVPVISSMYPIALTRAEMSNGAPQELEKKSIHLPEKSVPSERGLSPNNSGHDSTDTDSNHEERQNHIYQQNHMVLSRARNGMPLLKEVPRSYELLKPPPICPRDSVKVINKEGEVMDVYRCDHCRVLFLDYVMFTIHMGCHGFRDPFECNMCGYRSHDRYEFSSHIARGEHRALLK
IKZF3, sequence (Q96SW2 whole entry): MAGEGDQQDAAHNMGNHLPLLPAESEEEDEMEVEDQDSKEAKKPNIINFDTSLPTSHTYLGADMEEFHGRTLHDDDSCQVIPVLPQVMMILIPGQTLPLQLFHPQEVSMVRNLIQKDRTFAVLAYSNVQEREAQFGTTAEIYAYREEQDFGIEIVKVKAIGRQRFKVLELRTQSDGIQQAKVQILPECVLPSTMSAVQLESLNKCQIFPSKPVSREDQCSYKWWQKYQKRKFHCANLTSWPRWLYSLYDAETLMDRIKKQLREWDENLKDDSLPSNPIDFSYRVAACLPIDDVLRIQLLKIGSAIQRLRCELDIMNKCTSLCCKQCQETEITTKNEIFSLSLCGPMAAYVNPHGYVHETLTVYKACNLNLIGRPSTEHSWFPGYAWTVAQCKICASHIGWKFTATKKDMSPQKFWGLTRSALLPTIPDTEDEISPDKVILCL
IKZF3, sequence (Q16531 whole entry partner): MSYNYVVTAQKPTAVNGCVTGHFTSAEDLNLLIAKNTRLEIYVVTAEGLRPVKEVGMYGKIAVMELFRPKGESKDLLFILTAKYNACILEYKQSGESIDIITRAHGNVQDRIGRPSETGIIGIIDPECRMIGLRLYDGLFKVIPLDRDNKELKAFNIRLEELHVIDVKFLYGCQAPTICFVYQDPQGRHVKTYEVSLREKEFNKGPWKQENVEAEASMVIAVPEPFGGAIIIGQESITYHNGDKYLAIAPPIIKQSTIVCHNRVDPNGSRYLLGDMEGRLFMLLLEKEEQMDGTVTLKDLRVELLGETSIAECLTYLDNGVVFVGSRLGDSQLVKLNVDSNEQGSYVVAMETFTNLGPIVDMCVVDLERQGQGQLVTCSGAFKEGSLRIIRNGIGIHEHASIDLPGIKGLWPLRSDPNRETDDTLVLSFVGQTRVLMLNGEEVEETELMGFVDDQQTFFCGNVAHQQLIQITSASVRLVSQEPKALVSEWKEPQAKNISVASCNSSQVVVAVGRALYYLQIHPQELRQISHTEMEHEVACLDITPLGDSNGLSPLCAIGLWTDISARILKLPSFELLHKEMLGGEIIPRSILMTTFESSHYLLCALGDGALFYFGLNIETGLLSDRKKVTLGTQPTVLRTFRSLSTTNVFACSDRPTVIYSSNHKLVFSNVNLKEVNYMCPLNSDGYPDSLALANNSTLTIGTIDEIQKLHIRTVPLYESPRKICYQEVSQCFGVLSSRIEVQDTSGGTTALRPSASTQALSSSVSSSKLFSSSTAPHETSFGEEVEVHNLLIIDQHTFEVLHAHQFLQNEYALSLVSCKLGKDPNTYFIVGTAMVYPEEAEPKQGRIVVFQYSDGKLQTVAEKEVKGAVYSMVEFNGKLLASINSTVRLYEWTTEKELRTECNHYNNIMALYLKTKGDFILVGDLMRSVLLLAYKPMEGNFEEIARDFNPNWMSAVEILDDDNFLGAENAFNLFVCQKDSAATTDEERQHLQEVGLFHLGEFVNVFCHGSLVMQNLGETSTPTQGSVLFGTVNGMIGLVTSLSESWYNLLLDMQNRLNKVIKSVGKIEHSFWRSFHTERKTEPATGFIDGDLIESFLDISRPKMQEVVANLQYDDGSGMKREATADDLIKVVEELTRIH
GSPT1, sequence (P15170 whole entry): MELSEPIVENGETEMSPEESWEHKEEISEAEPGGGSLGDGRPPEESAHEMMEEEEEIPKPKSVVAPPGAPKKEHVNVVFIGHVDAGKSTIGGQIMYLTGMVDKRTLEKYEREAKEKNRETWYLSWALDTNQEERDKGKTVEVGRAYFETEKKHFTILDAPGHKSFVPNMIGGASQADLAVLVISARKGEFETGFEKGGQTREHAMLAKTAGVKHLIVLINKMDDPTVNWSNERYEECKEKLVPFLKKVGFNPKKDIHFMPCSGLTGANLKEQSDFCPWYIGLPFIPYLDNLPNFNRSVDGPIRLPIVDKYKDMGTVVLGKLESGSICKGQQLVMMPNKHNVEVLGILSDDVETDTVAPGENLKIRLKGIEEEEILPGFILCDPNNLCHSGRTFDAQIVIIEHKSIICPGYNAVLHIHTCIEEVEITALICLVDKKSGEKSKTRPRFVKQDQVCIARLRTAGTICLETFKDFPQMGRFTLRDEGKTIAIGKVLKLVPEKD
GSPT1, sequence (Q96SW2 whole entry): as the sequence (Q96SW2 whole entry) above
GSPT1, sequence (Q16531 whole entry partner): as the sequence (Q16531 whole entry partner) above
IKZF1, sequence (Q13422 whole entry): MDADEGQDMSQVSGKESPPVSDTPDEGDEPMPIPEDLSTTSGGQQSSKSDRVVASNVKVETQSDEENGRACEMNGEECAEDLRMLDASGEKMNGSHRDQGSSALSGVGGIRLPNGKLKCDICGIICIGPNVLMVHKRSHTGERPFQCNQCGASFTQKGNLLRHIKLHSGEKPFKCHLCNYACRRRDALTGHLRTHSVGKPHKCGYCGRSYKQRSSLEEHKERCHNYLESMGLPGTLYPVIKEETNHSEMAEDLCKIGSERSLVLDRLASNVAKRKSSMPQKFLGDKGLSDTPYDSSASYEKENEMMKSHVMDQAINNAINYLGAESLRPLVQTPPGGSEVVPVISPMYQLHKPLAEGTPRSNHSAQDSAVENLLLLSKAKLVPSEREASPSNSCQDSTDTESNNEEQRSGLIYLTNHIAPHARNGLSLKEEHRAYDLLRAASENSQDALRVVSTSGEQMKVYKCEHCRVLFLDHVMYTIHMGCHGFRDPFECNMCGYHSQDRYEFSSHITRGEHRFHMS
IKZF1, sequence (Q96SW2 whole entry): as the sequence (Q96SW2 whole entry) above
IKZF1, sequence (Q16531 whole entry partner): as the sequence (Q16531 whole entry partner) above

For `O=C1CCC(N2C(=O)c3ccc(C(=O)N4CCC(N(c5ccccc5)c5ccccc5)CC4)cc3C2=O)C(=O)N1` (stereo not drawn) [GT-05928, 2-(2,6-dioxopiperidin-3-yl)-5-(4-(diphenylamino)piperidine-1-carbonyl) isoindoline-1,3-dione], at IKZF1, the “substrate protein remaining % IKZF1” value is recorded as “B (B represents substrate protein remaining % > 50%)”. In addition, the “substrate protein remaining % GSPT1” value on GSPT1 is recorded as “A (A represents 0% ≤ substrate protein remaining % ≤ 50%)”. For the same compound, on IKZF3, the “substrate protein remaining % IKZF3” value is recorded as “B (B represents substrate protein remaining % > 50%)”.

As for `O=C1CCC(N2C(=O)c3cc(F)c(N4C5CCC4CN(C(c4ccccc4)c4ccccc4)C5)cc3C2=O)C(=O)N1` (stereo not drawn) [GT-05932, 5-(3-benzhydryl-3,8-diazabicyclo[3.2.1]octan-8-yl)-2-(2,6-dioxopiperidin-3-yl)-6-fluoroisoindoline-1,3-dione], the “substrate protein remaining % IKZF1” value at IKZF1 is “B (B represents substrate protein remaining % > 50%)”. Further, on GSPT1, the “substrate protein remaining % GSPT1” value is “A (A represents 0% ≤ substrate protein remaining % ≤ 50%)”. Further, the “substrate protein remaining % IKZF3” value at IKZF3 is listed as “B (B represents substrate protein remaining % > 50%)”.

Regarding `O=C1CCC(N2C(=O)c3cc(F)c(N4CC5CC(C4)N5C(c4ccccc4)c4ccccc4)cc3C2=O)C(=O)N1` (stereo not drawn) [GT-05934, 5-(6-benzhydryl-3,6-diazabicyclo[3.1.1]heptan-3-yl)-2-(2,6-dioxopiperidin-3-yl)-6-fluoroisoindoline-1,3-dione], the “substrate protein remaining % IKZF1” value on IKZF1 is reported as “B (B represents substrate protein remaining % > 50%)”. The “substrate protein remaining % GSPT1” value at GSPT1 is “A (A represents 0% ≤ substrate protein remaining % ≤ 50%)”. Further, the “substrate protein remaining % IKZF3” value on IKZF3 was “A (A represents 0% ≤ substrate protein remaining % ≤ 50%)”.

For `O=C1CCC(N2C(=O)c3ccc(N4C5CCC4CN(C(c4ccccc4)c4ccccc4)C5)cc3C2=O)C(=O)N1` (stereo not drawn) [GT-05937, 5-(3-benzhydryl-3,8-diazabicyclo[3.2.1]octan-8-yl)-2-(2,6-dioxopiperidin-3-yl) isoindoline-1,3-dione], the “substrate protein remaining % IKZF1” value at IKZF1 was “B (B represents substrate protein remaining % > 50%)”. Further, on GSPT1, the “substrate protein remaining % GSPT1” value is “A (A represents 0% ≤ substrate protein remaining % ≤ 50%)”. The “substrate protein remaining % IKZF3” value on IKZF3 is recorded as “B (B represents substrate protein remaining % > 50%)”.

Consider `O=C1CCC(N2C(=O)c3ccc(N4C5CC4CN(C(c4ccccc4)c4ccccc4)C5)cc3C2=O)C(=O)N1` (stereo not drawn) [GT-05938, 5-(3-benzhydryl-3,6-diazabicyclo[3.1.1]heptan-6-yl)-2-(2,6-dioxopiperidin-3-yl) isoindoline-1,3-dione], for which, on IKZF1, the “substrate protein remaining % IKZF1” value is “B (B represents substrate protein remaining % > 50%)”. The “substrate protein remaining % GSPT1” value on GSPT1 was “A (A represents 0% ≤ substrate protein remaining % ≤ 50%)”. The “substrate protein remaining % IKZF3” value at IKZF3 is recorded as “B (B represents substrate protein remaining % > 50%)”.

Take `O=C1CCC(N2C(=O)c3ccc(CN4C[C@H]5C[C@@H]4CN5C(c4ccccc4)c4ccccc4)cc3C2=O)C(=O)N1` (stereo partly drawn) [GT-05959, 5-(((1R,4R)-5-benzhydryl-2,5-diazabicyclo[2.2.1]heptan-2-yl)methyl)-2-(2,6-dioxopiperidin-3-yl) isoindoline-1,3-dione]: on IKZF1, the “substrate protein remaining % IKZF1” value is listed as “B (B represents substrate protein remaining % > 50%)”. For the same compound, the “substrate protein remaining % GSPT1” value at GSPT1 was “A (A represents 0% ≤ substrate protein remaining % ≤ 50%)”. Besides, the “substrate protein remaining % IKZF3” value at IKZF3 is “B (B represents substrate protein remaining % > 50%)”.

On to `CC1CN(Cc2ccc3c(c2)C(=O)N(C2CCC(=O)NC2=O)C3=O)CC(C)N1C(c1ccccc1)c1ccccc1` (stereo not drawn) [GT-05968, 5-((4-benzhydryl-3,5-dimethylpiperazin-1-yl)methyl)-2-(2,6-dioxopiperidin-3-yl) isoindoline-1,3-dione], for which the “substrate protein remaining % IKZF1” value at IKZF1 is “B (B represents substrate protein remaining % > 50%)”. Also, the “substrate protein remaining % GSPT1” value at GSPT1 was “A (A represents 0% ≤ substrate protein remaining % ≤ 50%)”. The “substrate protein remaining % IKZF3” value on IKZF3 is listed as “B (B represents substrate protein remaining % > 50%)”.

In the case of `O=C1CCC(N2C(=O)c3ccc(C(=O)N4CC5CCC(C4)N5C(c4ccccc4)c4ccccc4)cc3C2=O)C(=O)N1` (stereo not drawn) [GT-05982, 5-(8-benzhydryl-3,8-diazabicyclo[3.2.1]octane-3-carbonyl)-2-(2,6-dioxopiperidin-3-yl) isoindoline-1,3-dione], the “substrate protein remaining % IKZF1” value at IKZF1 is listed as “B (B represents substrate protein remaining % > 50%)”. Besides, the “substrate protein remaining % GSPT1” value at GSPT1 was “A (A represents 0% ≤ substrate protein remaining % ≤ 50%)”. The “substrate protein remaining % IKZF3” value on IKZF3 was “B (B represents substrate protein remaining % > 50%)”.

As to `C[C@@H]1CN(C(c2ccccc2)c2ccccc2)CCN1Cc1ccc2c(c1)C(=O)N(C1CCC(=O)NC1=O)C2=O` (stereo partly drawn) [GT-06047, 5-(((R)-4-benzhydryl-2-methylpiperazin-1-yl)methyl)-2-(2,6-dioxopiperidin-3-yl) isoindoline-1,3-dione], the “substrate protein remaining % IKZF1” value on IKZF1 is on record as “B (B represents substrate protein remaining % > 50%)”. Also, the “substrate protein remaining % GSPT1” value at GSPT1 is “A (A represents 0% ≤ substrate protein remaining % ≤ 50%)”. In addition, the “substrate protein remaining % IKZF3” value at IKZF3 is reported as “B (B represents substrate protein remaining % > 50%)”.

Regarding `O=C1CCC(N2C(=O)c3ccc(CN4CCN(C5c6cc(Cl)ccc6-c6ccc(Cl)cc65)CC4)cc3C2=O)C(=O)N1` (stereo not drawn) [GT-06049, 5-((4-(2,7-dichloro-9H-fluoren-9-yl)piperazin-1-yl)methyl)-2-(2,6-dioxopiperidin-3-yl) isoindoline-1,3-dione], the “substrate protein remaining % IKZF1” value at IKZF1 is “B (B represents substrate protein remaining % > 50%)”. Also, the “substrate protein remaining % GSPT1” value at GSPT1 is on record as “A (A represents 0% ≤ substrate protein remaining % ≤ 50%)”. Moreover, at IKZF3, the “substrate protein remaining % IKZF3” value is given as “A (A represents 0% ≤ substrate protein remaining % ≤ 50%)”.

Turning to `O=C1CCC(N2C(=O)c3ccc(CN4CC5CN(C(c6ccccc6)c6ccccc6)CC5C4)cc3C2=O)C(=O)N1` (stereo not drawn) [GT-06053, 5-((5-benzhydrylhexahydropyrrolo[3,4-c]pyrrol-2 (1H)-yl)methyl)-2-(2,6-dioxopiperidin-3-yl) isoindoline-1,3-dione], at IKZF1, the “substrate protein remaining % IKZF1” value is “B (B represents substrate protein remaining % > 50%)”. In addition, on GSPT1, the “substrate protein remaining % GSPT1” value is on record as “A (A represents 0% ≤ substrate protein remaining % ≤ 50%)”. Besides, the “substrate protein remaining % IKZF3” value at IKZF3 is listed as “B (B represents substrate protein remaining % > 50%)”.

For the compound `O=C1CCC(N2C(=O)c3ccc(C(=O)N4CC5CN(C(c6ccccc6)c6ccccc6)CC5C4)cc3C2=O)C(=O)N1` (stereo not drawn) [GT-06068, 5-(5-benzhydryloctahydropyrrolo[3,4-c]pyrrole-2-carbonyl)-2-(2,6-dioxopiperidin-3-yl) isoindoline-1,3-dione], on IKZF1, the “substrate protein remaining % IKZF1” value is “B (B represents substrate protein remaining % > 50%)”. For the same compound, on GSPT1, the “substrate protein remaining % GSPT1” value is reported as “A (A represents 0% ≤ substrate protein remaining % ≤ 50%)”. The “substrate protein remaining % IKZF3” value at IKZF3 is on record as “B (B represents substrate protein remaining % > 50%)”.

`O=C1CCC(N2C(=O)c3ccc(CN4CCN(C(c5ccccc5F)c5ccccc5F)CC4)cc3C2=O)C(=O)N1` (stereo not drawn) [GT-06088, 5-((4-(bis(2-fluorophenyl)methyl)piperazin-1-yl)methyl)-2-(2,6-dioxopiperidin-3-yl) isoindoline-1,3-dione]: the “substrate protein remaining % IKZF1” value at IKZF1 is listed as “B (B represents substrate protein remaining % > 50%)”. Moreover, the “substrate protein remaining % GSPT1” value on GSPT1 was “A (A represents 0% ≤ substrate protein remaining % ≤ 50%)”. In addition, the “substrate protein remaining % IKZF3” value at IKZF3 was “B (B represents substrate protein remaining % > 50%)”.

With `C[C@@H]1CN(C(c2ccccc2)c2ccccc2)CCN1C(=O)c1ccc2c(c1)C(=O)N(C1CCC(=O)NC1=O)C2=O` (stereo partly drawn) [GT-06094, 5-((R)-4-benzhydryl-2-methylpiperazine-1-carbonyl)-2-(2,6-dioxopiperidin-3-yl) isoindoline-1,3-dione], the “substrate protein remaining % IKZF1” value at IKZF1 was “B (B represents substrate protein remaining % > 50%)”. Besides, on GSPT1, the “substrate protein remaining % GSPT1” value was “A (A represents 0% ≤ substrate protein remaining % ≤ 50%)”. The “substrate protein remaining % IKZF3” value at IKZF3 is reported as “B (B represents substrate protein remaining % > 50%)”.

For the compound `O=C1CCC(N2C(=O)c3ccc(CN4CCN(C(c5ccccc5)c5ccccc5)CC4C(F)(F)F)cc3C2=O)C(=O)N1` (stereo not drawn) [GT-06099, 5-((4-benzhydryl-2-(trifluoromethyl)piperazin-1-yl)methyl)-2-(2,6-dioxopiperidin-3-yl) isoindoline-1,3-dione], on IKZF1, the “substrate protein remaining % IKZF1” value is given as “B (B represents substrate protein remaining % > 50%)”. Moreover, the “substrate protein remaining % GSPT1” value at GSPT1 is recorded as “A (A represents 0% ≤ substrate protein remaining % ≤ 50%)”. Also, the “substrate protein remaining % IKZF3” value on IKZF3 is “B (B represents substrate protein remaining % > 50%)”.
